For assay [1], the target named is T1, human recombinant histamine H2 receptor (Homo sapiens, UniProt P25021).
T1 construct: expressed in transfected cells; host or cells: Chinese hamster ovary (CHO) K1 cells
Kind of assay: Histamine H2 radioligand binding assay. The following applies: [125I]Aminopotentidine specific binding, read-out: Percentage Inhibition, Histamine Binding (1 μM) H2. The protocol: To evaluate in radioligand binding assays the activity of compounds of the invention, human recombinant histamine H2 receptor expressed in Chinese hamster ovary (CHO) K1 cells [Ruat, M., Proc. Natl. Acad. Sci. USA. (1990), 87(5):1658] in a 50 mM Phosphate buffer, pH 7.4 was used. Compounds of the invention were incubated with 0.1 nM [^125I]Aminopotentidine for 120 min. at 25° C. Non-specific binding was estimated in the presence of 3 μM Tiotidine. Receptor proteins were filtered and washed, the filters were then counted to determine [^125I]Aminopotentidine specifically bound. Compounds were screened at 1 μM or lower, using 1% DMSO as vehicle. Biochemical assay results are presented as the percent inhibition of specific binding in Table 2.

Assay [2] has as its target T2, human recombinant adrenergic α1D receptor (Homo sapiens, UniProt P25100).
T2 construct: expressed in transfected cells; host or cells: human embryonic kidney (HEK-293) cells
T2 sequence (P25100 1-572): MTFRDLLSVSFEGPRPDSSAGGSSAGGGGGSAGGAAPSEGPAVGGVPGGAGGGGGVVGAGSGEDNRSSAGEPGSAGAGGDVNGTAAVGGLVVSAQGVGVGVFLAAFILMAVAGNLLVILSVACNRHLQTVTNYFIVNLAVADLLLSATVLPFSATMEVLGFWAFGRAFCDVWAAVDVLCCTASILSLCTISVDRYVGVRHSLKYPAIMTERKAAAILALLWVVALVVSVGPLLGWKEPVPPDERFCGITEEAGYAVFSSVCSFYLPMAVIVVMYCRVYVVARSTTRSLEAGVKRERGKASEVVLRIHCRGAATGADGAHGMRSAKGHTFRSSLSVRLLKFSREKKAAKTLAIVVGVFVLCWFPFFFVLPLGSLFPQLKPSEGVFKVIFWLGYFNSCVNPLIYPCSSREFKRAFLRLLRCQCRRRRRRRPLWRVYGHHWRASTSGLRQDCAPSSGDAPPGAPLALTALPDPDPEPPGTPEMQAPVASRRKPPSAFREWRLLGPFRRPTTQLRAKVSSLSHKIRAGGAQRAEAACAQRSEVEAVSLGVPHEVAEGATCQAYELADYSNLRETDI
Kind of assay: Adrenergic α1D radioligand binding assay. As to conditions: 1 μM; [3H]Prozosin specific binding; read-out: Percent Inhibition of ligand binding, Adrenergic (1 μM ligand conc.) α1D. The protocol:
To evaluate in radioligand binding assays the activity of compounds of the invention, human recombinant adrenergic α1D receptor expressed in human embryonic kidney (HEK-293) cells [Kenny, B. A. et al. Br. J. Pharmacol. (1995), 115(6):981] in a 50 mM Tris-HCl buffer, pH 7.4, was used. Compounds of invention were incubated with 0.6 nM [^3H]Prozosin for 60 min. at 25° C. Non-specific binding was estimated in the presence of 10 μM phentolamine. Receptor proteins were filtered and washed, the filters were then counted to determine [^3H]Prozosin specifically bound. Compounds were screened at 1 μM or lower, using 1% DMSO as vehicle. Compounds of the invention were tested in this biochemical assay. Biochemical assay results for representative compounds were presented as the percent inhibition of specific binding in Table 3.

Assay [3] concerns the target T3, human recombinant adrenergic α2B receptor (Homo sapiens, UniProt P18089).
T3 construct: expressed in transfected cells; host or cells: Chinese hamster ovary (CHO-K1) cells
T3 sequence (P18089 1-450): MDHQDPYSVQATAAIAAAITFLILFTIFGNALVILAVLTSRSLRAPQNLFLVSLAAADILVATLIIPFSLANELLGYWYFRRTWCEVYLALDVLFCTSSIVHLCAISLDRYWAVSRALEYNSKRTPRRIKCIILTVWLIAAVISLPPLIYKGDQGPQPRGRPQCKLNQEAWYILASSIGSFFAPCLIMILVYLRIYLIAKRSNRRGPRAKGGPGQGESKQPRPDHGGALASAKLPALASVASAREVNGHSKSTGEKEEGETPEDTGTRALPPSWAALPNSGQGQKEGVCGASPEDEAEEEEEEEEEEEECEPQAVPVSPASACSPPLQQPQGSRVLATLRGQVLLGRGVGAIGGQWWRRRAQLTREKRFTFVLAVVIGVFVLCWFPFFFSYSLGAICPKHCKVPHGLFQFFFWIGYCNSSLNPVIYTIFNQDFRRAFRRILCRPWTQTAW
Kind of assay: Adrenergic α2B radioligand binding assay. The following applies: 1 μM; [3H]Rauwolscine specific binding; read-out: Percent Inhibition of ligand binding, Adrenergic (1 μM ligand conc.) α2B. The protocol: To evaluate in radioligand binding assays the activity of compounds of the invention, human recombinant adrenergic α2B receptor expressed in Chinese hamster ovary (CHO-K1) cells [Uhlen, S et al., Eur J Pharmacol. (1998), 343(1):93] in a modified Tris-HCl buffer (50 mM Tris-HCl, pH 7.4, 12.5 mM MgCl2, 1 mM EDTA, 0.2% BSA) was used. Compounds of the invention were incubated with 2.5 nM [^3H]Rauwolscine for 60 min. at 25° C. Non-specific binding was estimated in the presence of 10 μM Prozosin. Receptor proteins were filtered and washed, the filters were then counted to determine [^3H]Rauwolscine specifically bound. Compounds were screened at 1 μM or lower, using 1% DMSO as vehicle. Compounds of the invention were tested in this biochemical assay. Biochemical assay results for representative compounds were presented as the percent inhibition of specific binding in Table 3.

The target of assay [4] is human recombinant dopamine D2L receptor (Homo sapiens, UniProt P14416). Kind of assay: Dopamine D2L radioligand binding assay. As to conditions: [3H]Spiperone specific binding; for inhibition at 1 µM: read-out: Percent Inhibition of ligand binding, Dopamine (1 μM ligand conc.) D2L. The protocol: To evaluate in radioligand binding assays the activity of compounds of the invention, human recombinant dopamine D2L receptor expressed in Chinese hamster ovary (CHO) cells [Grandy, D. K. et al. Proc. Natl. Acad. Sci. USA. (1989), 86:9762; Hayes, G. et al., Mol. Endocrinol. (1992), 6:920] in a modified Tris-HCl buffer (50 mM Tris-HCl, pH 7.4, 1.4 mM Ascorbic Acid, 0.001% BSA, 150 mM NaCl) was used. Compounds of the invention were incubated with 0.16 nM [^3H]Spiperone for 120 min. at 25° C. Non-specific binding was estimated in the presence of 10 μM Haloperidol. Receptor proteins were filtered and washed, the filters were then counted to determine [^3H]Spiperone specifically bound. Compounds were screened at 1 μM or lower, using 1% DMSO as vehicle. Biochemical assay results are presented as the percent inhibition of specific binding in Table 3.
Sequence of human recombinant dopamine D2L receptor (P14416 whole entry): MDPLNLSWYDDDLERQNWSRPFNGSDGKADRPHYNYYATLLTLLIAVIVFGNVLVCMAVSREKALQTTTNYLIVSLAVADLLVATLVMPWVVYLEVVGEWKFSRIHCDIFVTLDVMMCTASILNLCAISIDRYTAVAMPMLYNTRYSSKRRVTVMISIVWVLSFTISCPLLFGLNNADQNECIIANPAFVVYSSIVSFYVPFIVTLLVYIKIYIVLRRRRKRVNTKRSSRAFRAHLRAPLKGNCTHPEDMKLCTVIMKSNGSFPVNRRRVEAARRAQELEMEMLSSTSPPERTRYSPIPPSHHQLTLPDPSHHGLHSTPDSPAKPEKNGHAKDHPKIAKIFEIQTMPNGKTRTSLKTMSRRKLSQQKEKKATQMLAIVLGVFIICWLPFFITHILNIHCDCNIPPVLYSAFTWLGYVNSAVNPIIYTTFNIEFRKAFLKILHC

T1 sequence (P25021 whole entry): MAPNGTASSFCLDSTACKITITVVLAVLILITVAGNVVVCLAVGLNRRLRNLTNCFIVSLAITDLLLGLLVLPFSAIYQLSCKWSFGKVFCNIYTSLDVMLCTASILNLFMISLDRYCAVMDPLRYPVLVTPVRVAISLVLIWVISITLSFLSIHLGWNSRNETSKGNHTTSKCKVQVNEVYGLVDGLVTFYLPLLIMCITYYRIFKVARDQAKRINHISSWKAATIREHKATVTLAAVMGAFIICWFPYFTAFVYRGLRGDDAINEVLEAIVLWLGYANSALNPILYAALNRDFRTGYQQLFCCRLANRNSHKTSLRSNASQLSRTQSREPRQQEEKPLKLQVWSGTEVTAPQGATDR

Broadly, the inhibition is the change of the read-out against control, counted positive when it falls. With `Cc1ccc2c(c1)c1c(n2CC(C)(O)c2ccc(F)cc2F)CN2CCC1C2` (stereo not shown) [Compound 17], the inhibition at 1 µM in assay [1] was 4%; in assay [2], 19%; in assay [3] it was 90%; in assay [4], 5%.
In the same order, the values of `Cc1ccc2c(c1)c1c(n2CC(C)(O)c2ccc(F)c(Cl)c2)CN2CCC1C2` (stereo not shown) [Compound 18] are 16%, 1%, 107% and -1%.
For the compound `Cc1ccc2c(c1)c1c(n2CCc2nc(-c3ccccc3)cs2)CN2CCC1C2` (stereo not shown) [Compound 19], the inhibition at 1 µM in assay [1] is -9%; in assay [2] it was 34%; in assay [3] it was 61%; in assay [4] it was -2%.
As to `Cc1ccc(C(C)(O)Cn2c3c(c4cc(C)ccc42)C2CCN(C3)C2)cc1` (stereo not shown) [Compound 20], the inhibition at 1 µM in assay [1] was determined as 2%; in assay [2], 29%; in assay [3] it was 97%; in assay [4] it was 9%.
For `Cc1ccc2c(c1)c1c(n2CC(=O)c2ccccc2)CN2CCC1C2` (stereo not shown) [Compound 21], in that order: -6%, -4%, 20% and -2%.
Turning to `C/C(=C\n1c2c(c3cc(C)ccc31)C1CCN(C2)C1)c1ccc(F)cc1` (stereo not shown) [Compound 22], the inhibition at 1 µM in assay [1] worked out at 15%; in assay [2] it was 81%; in assay [3] it was 95%; in assay [4], 21%. Moreover, in assay [4], the “Percent Inhibition of ligand binding, Dopamine (1 μM ligand conc.) D2L” value is recorded as 25%.
For `Cc1ccc2c(c1)c1c(n2CC(=O)NC2CCCCC2)CN2CCC1C2` (stereo not shown) [Compound 23], the inhibition at 1 µM in assay [1] was -3%; in assay [2] it was 18%; in assay [3], -6%; in assay [4] it was 5%.
For the compound `Cc1ccc2c(c1)c1c(n2CC(=O)N2CCNCC2)CN2CCC1C2` (stereo not shown) [Compound 24], the inhibition at 1 µM is -3% in assay [1], 2% in assay [2], -4% in assay [3] and -8% in assay [4].
As for `Cc1ccc2c(c1)c1c(n2CC(=O)N2CCC(C)CC2)CN2CCC1C2` (stereo not shown) [Compound 25], the inhibition at 1 µM was -4% in assay [1], -1% in assay [2], -17% in assay [3] and 9% in assay [4].
For the compound `Cc1ccc2c(c1)c1c(n2CC(=O)N2CCOCC2)CN2CCC1C2` (stereo not shown) [Compound 26], the inhibition at 1 µM in assay [1] was -1%; in assay [2] it was 6%; in assay [3], 7%; in assay [4] it was 10%.
For `Cc1ccc2c(c1)c1c(n2CC(=O)N(C)C)CN2CCC1C2` (stereo not shown) [Compound 27], in that order: -3%, 9%, -15% and 11%.
On to `Cc1ccc2c(c1)c1c(n2CC(=O)c2ccc(F)cc2)CN2CCC1C2` (stereo not shown) [Compound 28], for which the inhibition at 1 µM stood at 18% in assay [1], 49% in assay [2], 45% in assay [3] and 1% in assay [4].
On to `Cc1ccc2c(c1)c1c(n2CC(=O)c2ccc(Cl)cc2)CN2CCC1C2` (stereo not shown) [Compound 29], for which the inhibition at 1 µM in assay [1] turned out to be 19%; in assay [2], 42%; in assay [3], 58%; in assay [4], 0%.
Turning to `Cc1ccc2c(c1)c1c(n2CCc2ccncc2)CN2CCC1C2` (stereo not shown) [Compound 30], the inhibition at 1 µM was found to be 18% in assay [1], 40% in assay [2], 76% in assay [3] and 10% in assay [4].
As for `Cc1ccc2c(c1)c1c(n2CC(O)c2ccc(F)cc2)CN2CCC1C2` (stereo not shown) [Compound 31], the inhibition at 1 µM in assay [1] came to 5%; in assay [2], 34%; in assay [3], 79%; in assay [4], 2%.

(Values after patent US9271971B2, “Pyrido[3,4-B]indoles and methods of use” (Medivation Technologies, Inc., priority 2009, dated 2016).)
